Assay results as given in patent publication US6046169A, “Inhibitors of factor XA” (COR Therapeutics, Inc., priority 1995, dated 2000).
Square brackets hold non-standard residues; d marks the D form. Peptide text beside a SMILES is read from it. * marks the point of attachment. Boc = CC(C)(C)OC(=O)*

Experiments:
[1] = system: cuticle bleeding time; assay: Cuticle Bleeding Time model in rabbits; type: in vivo, rabbit; settings: 1500 μg/kg+14.85 μg/kg/min
Procedure: In an ancillary study, a Cuticle Bleeding Time model was used to evaluate the effect of test compounds on bleeding time (BT) measurements in rabbits. The standardized protocol involved anesthesia and catheterization of rabbits as previously described in this Example 43. To measure BT, a toe nail was cut 5 mm from the base of the cuticle with a canine nail trimming device. Time until cessation of bleeding was recorded by wicking the blood on to BT blotting paper in 30 second intervals. Test compound was administered as a bolus followed by infusion regimen. Two BT measurements were obtained prior to administration of test compound and three BT measurements accomplished serially after initiation of steady state infusion of test compound. BT measurements were allowed to continue for up to 30 minutes at which time it was stopped with application of silver nitrate. Blood samples were obtained just prior to all BT measurements and processed for measurement of hematological and coagulation parameters.

[2] = rabbit, in vivo, iv, 2 mg/kg
[3] = system: coagulation parameters (aPTT, PT, FIB)
[4] = system: rabbit venous thrombosis; settings: in vivo
[5] = in vivo; settings: rabbit, iv
[6] = system: rabbit venous thrombosis; assay: Rabbit deep vein thrombosis model; settings: bolus + infusion, doses 200 + 1.98 to 1500 + 14.85 μg/kg + μg/kg/min

Row | SMILES | changes in hematological parameters from pre to post administration ([1]; cuticle BT experiments) | increase of cuticle BT from pre-administration baseline ([1]; rabbits, n=4, ±1.26) | peak plasma concentration by HPLC [2] | changes in hematological parameters as compared to saline controls ([3]; rabbit, in vivo, iv, 2 mg/kg) | effects on hematological parameters as compared to saline controls [4] | half-life [5] | Vd ([5]; 2 mg/kg) | FIB prolongation ([3]; rabbits, I.V. bolus 2.0 mg/kg) | PT prolongation ([3]; rabbits, I.V. bolus 2.0 mg/kg) | aPTT prolongation as compared to pretreatment values ([3]; rabbits, I.V. bolus 2.0 mg/kg) | anticoagulative effect ([3]; rabbits, I.V. bolus 2.0 mg/kg) | antithrombotic efficacy in the rabbit venous thrombosis model [6]
1 | CC(C)(C)OC(=O)N[C@H](CCCN=C(N)N)C(=O)NCC(=O)N[C@H](C=O)CCCN=C(N)N [Boc--D-Arg--Gly--Arg--H, Boc-D-Arg-Gly-Arg-H] (Boc-[dR]-Gly-Arg-aldehyde) | no significant changes | 2.14 fold | 3.78 µg/mL | no significant changes | no significant effects | 1.18 h | 0.118 L/kg | – | – | – | – | –
2 | CC(C)(C)OC(=O)N[C@H](CCCNC(=N)N)C(=O)NCC(=O)N[C@H](C=O)CCCNC(=N)N [Boc--D-Arg--Gly--Arg--H, Boc-D-Arg-Gly-Arg-H] (Boc-[dR]-Gly-Arg-aldehyde) | – | – | – | – | – | – | – | 1.07 fold | 1.15 fold | 2.45 fold | plasma concentration-dependent anticoagulative effect | antithrombotic efficacy at the higher doses evaluated
